{
  "source": "patent US8765149B2",
  "about": "“Low-oil pharmaceutical emulsion compositions comprising progestogen” (Besins Healthcare Luxembourg Sarl, priority 2010, dated 2014)",
  "origin": "cited, not measured here",
  "tested_on": "TBI patients",
  "conditions": "two recent clinical trials",
  "data": [
    {"compound": "CC(=O)[C@H]1CC[C@H]2[C@@H]3CCC4=CC(=O)CC[C@]4(C)[C@H]3CC[C@]12C", "note": "[progesterone, pregn-4-ene-3,20-dione]", "values": [
      {"measurement": "mortality of TBI patients", "value": "decreased mortality"},
      {"measurement": "safety in TBI patients", "value": "safe and well tolerated"}
    ]}
  ]
}
